The values that follow come from ChEMBL document CHEMBL1129712, “Synthesis and biological activities of camphor-based non-peptide growth hormone secretagogues” (Bioorg Med Chem Lett, 1996).

The term EC50 denotes the concentration giving half of the maximal effect. Read a high EC50 as lower potency in that assay.

The species entered for this assay is Rattus norvegicus. The experiment in a line: Evaluated for intrinsic GH secretory potency as half maximal release of GH in the rat pituitary cell assay. The assay is classed as functional. The following applies: Pituitary gland cell.

Bounds are passed on as bounds.

In the case of `Cc1ccccc1N1CCN(S(=O)(=O)CC23CCC(CC2NC(=O)CC(C)(C)N)C3(C)C)CC1` (stereo not given), the EC50 was over 10000 nM.
`CC1(C)C2CCC1(CS(=O)(=O)N1CCC3(CCc4ccccc43)CC1)C(NC(=O)[C@H]1CCCNC1)C2` (stereo not given in full) had an EC50 of over 1000 nM.
Compound `Cc1ccccc1N1CCN(S(=O)(=O)CC23CCC(CC2NC(=O)[C@H]2CCCNC2)C3(C)C)CC1` (stereo not given in full) displayed an EC50 of over 5000 nM.
For `Cc1ccccc1N1CCN(S(=O)(=O)CC23CCC(CC2NC(=O)[C@@H]2CCCNC2)C3(C)C)CC1` (stereo not given in full), a half-maximal response (EC50) required 135 nM.
Compound `CC(C)(N)CC(=O)NC1CC2CCC1(CS(=O)(=O)N1CCC3(CCc4ccccc43)CC1)C2(C)C` (stereo not given) came in with an EC50 of over 10000 nM.
As for `CC1(C)C2CCC1(CS(=O)(=O)N1CCC3(CCc4ccccc43)CC1)C(NC(=O)C1CN3CCC1CC3)C2` (stereo not given), the EC50 was over 10000 nM.
Turning to `C[C@@H](O)CN1CCC[C@@H](C(=O)NC2CC3CCC2(CS(=O)(=O)N2CCC4(CCc5ccccc54)CC2)C3(C)C)C1` (stereo not given in full), the 50% effective concentration (EC50) is 90 nM.
As for `CC1(C)C2CCC1(CS(=O)(=O)N1CCC3(CCc4ccccc43)CC1)C(NC(=O)C1CCNCC1)C2` (stereo not given), the concentration for a half-maximal effect (EC50) amounted to 9500 nM.
For the compound `CC(C)(C)OC(=O)N1CCCC(C(=O)NC2CC3CCC2(CS(=O)(=O)N2CCC4(CCc5ccccc54)CC2)C3(C)C)C1` (stereo not given), the EC50 is over 25000 nM.
`CC1(C)C2CCC1(CS(=O)(=O)N1CCC3(CCc4ccccc43)CC1)C(NC(=O)C1CCCCN1)C2` (stereo not given) displayed an EC50 of over 10000 nM.
As to `CC(C)(N)C(=O)NC1CC2CCC1(CS(=O)(=O)N1CCC3(CCc4ccccc43)CC1)C2(C)C` (stereo not given), the concentration giving a half-maximal response (EC50) was over 10000 nM.
`CC1(C)C2CCC1(CS(=O)(=O)N1CCC3(CCc4ccccc43)CC1)C(NC(=O)[C@@H]1CCCN(C[C@H](O)CO)C1)C2` (stereo not given in full) gave an EC50 of 800 nM.
On to `CC1(C)C2CCC1(CS(=O)(=O)N1CCC3(CCc4ccccc43)CC1)C(NC(=O)C1CCCN(CCO)C1)C2` (stereo not given), for which the EC50 came to 300 nM.
For the compound `CC1(C)C2CCC1(CS(=O)(=O)N1CCC3(CCc4ccccc43)CC1)C(NC(=O)C1CCCNC1)C2` [L-368112], the response was half-maximal at 300 nM (EC50).
The same measure for `CC1(C)C2CCC1(CS(=O)(=O)N1CCC3(CCc4ccccc43)CC1)C(NC(=O)[C@@H]1CCCNC1)C2` (stereo partly drawn) [L-162425]: 140 nM.
